Assay results: patent US11311508B2, “Medicinal composition for preventing or treating secondary hyperparathyroidism under maintenance dialysis” (EA Pharma Co., Ltd., priority 2017, dated 2022)
Where a name gives a salt, the structure may show the parent alone.

Columns and labels:
[1] = system: SHPT patients on maintenance hemodialysis; assay: Phase I/II clinical trial, single intravenous administration; assay type: in vivo, human
Experimental: (§1) Targeting SHPT patients on maintenance hemodialysis, pharmacokinetics, pharmacodynamics and safety upon single or repeated intravenous administration of Compound A1 were examined by conducting a double-blind test using a placebo as a control.
(§2) Single administration: Based on the clinically effective dose calculated in Example 5, the doses were given at 0.025 mg, 0.05 mg, 0.1 mg, 0.2 mg, 0.4 mg, 0.6 mg and 0.8 mg (7 steps). On the day of trial drug administration, the trial drug was intravenously administered as slow as possible within 60 seconds 2 to 4 hours following the end of dialysis. Here, the trial drug was administered by diluting a required dose taken from the Compound A1 vial formulation prepared as follows with sterilized water for injection, and filling a syringe with the resultant in accordance with the dose to be administered.
(§3) Each item was evaluated according to the predetermined evaluation schedule.
(§4) A vial formulation encapsulating 1 mg of Compound A1 in terms of a dehydrate, and sodium chloride, disodium hydrogen phosphate dodecahydrate and sodium dihydrogen phosphate dihydrate as additives in 10 ml of sterilized water for injection

[2] = as above; assay type: in vivo, human; conditions: human, plasma, iv; single i.v. 0.025-0.8 mg; read-out: t½
Experimental: as §1, §2, §3, §4

[3] = Emetogenicity in dogs (crossover, intravenous bolus); conditions: male, beagle, dog, in vivo, 1 mg/kg (no vomiting case)
Experimental: A crossover trial was conducted with male beagles (Nosan Beagle, 14-87-month-old, weight: 10.2 kg-15.8 kg). The Compound A1 solutions used in Example 2 were given at 0.3, 1 and 10 mg/kg by bolus administration (0.5 mL/kg, 1 mL/sec) to 3-6 dogs per dose to confirm the manifestation of vomiting immediately after the administration. Administration was conducted once or twice a week with a 2-day interval. Administration was conducted prior to feeding. Symptoms prior to, immediately after, and 15 and 30 minutes after the administration were observed.

[4] = system: normal rats; assay: PK/PD analysis (EC50) in normal rats; assay type: in vivo; conditions: Rattus norvegicus, same PK/PD analysis
Text: (§5) EC50 value in patient with renal failure was estimated based on the calculated EC50 value in healthy adults and the results from the same analysis in normal rats and adenine-treated rat models (pathological rat models). […] Since the difference in the EC50 value between rats in normal state and pathological state is presumed to be caused by the changes in PK that are considered to greatly vary between normal state and pathological state, similar tendency is expected in human as well.

[5] = system: normal rat; assay: Non-clinical studies of excretion and elimination; assay type: in vivo
Text: Compound A1 is a CaSR activator used for intravenous administration.

[6] = system: SHPT patients on maintenance hemodialysis; assay: Phase I/II clinical trial, repeated intravenous administration; assay type: in vivo, human
Experimental: as §1
Repeated administration: Based on the clinically effective dose calculated in Example 5, the doses were given in 3 steps, namely, 0.05 mg, 0.1 mg and 0.2 mg. The trial drug was (intravenously) infused from the venous side of the dialysis circuit before the end of dialysis three times a week for 22 days (total of 9 times) starting from the first day of administration of the trial drug. Here, the trial drug was administered by diluting a required dose taken from the Compound A1 vial formulation prepared as follows with sterilized water for injection, and filling a syringe with the resultant in accordance with the dose to be administered.
as §3, §4

[7] = system: healthy Japanese male adults; assay: Phase I clinical trial (P1), single intravenous dose; assay type: in vivo, human
Experimental: Thirty-two healthy Japanese male adults were given a single intravenous dose of the test drug (Compound A1) at 0.01 mg, 0.1 mg, 1.0 mg or 2.5 mg in a fasted state to study the pharmacokinetics, pharmacodynamics and safety by a double-blind test using a placebo as a control. Here, the trial drug was administered by diluting a required dose taken from the Compound A1 vial formulation prepared as follows with sterilized water for injection, and filling a syringe with the resultant in accordance with the dose to be administered.
A vial formulation encapsulating 100 mg of Compound A1 in terms of a dehydrate, and sodium chloride, disodium hydrogen phosphate dodecahydrate and sodium dihydrogen phosphate dihydrate as additives in 10 ml of sterilized water for injection

[8] = in vivo; conditions: Crl:CD(SD), rat, iv, 30 mg/kg
Experimental: The mean±standard error of the serum iPTH concentrations of all individuals prior to the administration (0 hour) was 231±16 pg/ml.
Logistic curve fitting was conducted to establish the response relationship between the serum iPTH concentration 48 hours after the administration and the given dose.

[9] = system: patients with renal failure; assay: Estimation of EC50, PK and clinically effective dose in patients with renal failure; design: species or system human; conditions: scaling factor applied to healthy adult EC50
Text: as §5
The result from PK fitting, and the contribution rate of renal elimination of the drug (3.2%) calculated using PK-sim (registered trademark) were used to simulate PK prediction in the patients with renal failure. […] As a result, administration of a dose of 0.06 mg/man was estimated to maintain a concentration higher than 1.4 ng/ml for 72 hours (FIG. 8).

[10] = system: adenine-treated rat models; assay: PK/PD analysis (EC50) in adenine-treated rat models; assay type: in vivo; conditions: adenine-treated rat models (pathological rat models), same PK/PD analysis
Text: as §5

[11] = system: healthy adults; assay: PK/PD analysis of P1 (three-compartment model, indirect response model incorporating rebound); assay type: in vivo, human; conditions: Homo sapiens; iPTH decrease, healthy adults, indirect response model incorporating rebound; ± standard error
Experimental: (§6) A PK/PD analysis was conducted to estimate the clinically effective dose based on the results from P1. The dose of 2.5 mg seemed to be excessive and thus was eliminated from the analysis. PK (mean plasma concentration) and PD (mean iPTH level normalized by the levels of the placebo group and the 0-hour level) data of the doses of 0.01 mg, 0.1 mg and 1 mg were used. An indirect response model incorporating rebound was used for the PK/PD analysis.
(§7) Based on the results of PK of the three given doses (0.01 mg, 0.1 mg and 1 mg) in P1, the three given doses were simultaneously analyzed using a three-compartment model to calculate the PK parameters (FIG. 5 and Table 2).
(§8) Using the calculated PK parameters as an input function, PK/PD analysis was performed using an indirect response model incorporating rebound (FIG. 6) to calculate the EC50 value in healthy adults (FIG. 7 and Table 3).

[12] = as above; assay type: in vivo, human; conditions: male, human, plasma, intravenous
Experimental: as §6, §7, §8

[13] = system: bilaterally nephrectomized rats; assay: Survival of bilaterally nephrectomized rats after single doses; assay type: in vivo, rat; conditions: five rats per group
Text: After quarantine and acclimatization periods of 6 days, fifty-one 7-week-old rats (Crl: CD (SD), male) were fed a 100% sucrose diet ad libitum from four days before the surgery. On the day of the surgery, skin incisions were made on the back at the sites of the right and left kidneys under isoflurane anesthesia and the renal capsules were removed to ligate the renal arteries and veins and the ureters using threads before removing the right and left kidneys. A penicillin solution was given upon suturing, and 5 mL of physiological saline was intraperitoneally administered before returning the rats into the breeding cages.
On a day after the bilaterally nephrectomy, the given doses were calculated based on the weight of the selected animals on that day. Group 1 was given a medium (physiological saline), Groups 2, 3 and 4 were given the Compound A1 solution (0.3, 3 and 30 mg/mL, respectively), and Groups 5, 6, 7 and 8 (5 rats per group) were given the comparative compound (0.3, 1, 3 and 10 mg/mL, respectively), each given a single dose of 1 ml/kg from the tail vein. Prior to the administration (0 hour), and 24 and 48 hours after the administration, approximately 300 μL of blood was collected without anesthesia from the tail vein using capillary tubes for obtaining the serum. The blood for obtaining the serum was left to stand at room temperature, and centrifuged in a high speed refrigerated microcentrifuge (10000 rpm, 5 min, 4° C.) within a period of 30 minutes to 2 hours after the blood collection to collect the serum.
The number of rats in each group was five prior to the administration.

Cc1c(Cl)cc(S(=O)(=O)[O-])cc1NC(=O)NC[C@H](N)C(=O)O.[Na+] [Compound A1, sodium 3-{[(2S)-2-amino-2-carboxyethyl]carbamoylamino}-5-chloro-4-methylbenzenesulfonate]
lowering of plasma concentration immediately after dialysis vs just before the dialysis ([1]; hemodialysis performed 66 hours after the administration): 75-81% | nausea observed (non-severe and mild) ([1]; single administration): in the 0.6 mg and higher dose groups | vomiting observed (non-severe and mild) ([1]; single administration): in the 0.4 mg and higher dose groups | duration of serum iPTH lowering effect after the administration ([1]; single administration, until just before the dialysis): up to 66 hours | half-life [2]: 65 to 122 h | C0 [3]: 18.8 µM | EC50 [4]: < 0.0229 µg/mL | elimination from the plasma ([5]; intravenously administered to a normal rat): rapidly eliminated from the plasma | main route of excretion ([5]; non-clinical studies): renal excretion is the main route of excretion | accumulating property [6]: has not no accumulating property | trough concentration in plasma before the dialysis following the longest interval [6]: generally constant | maintenance of serum iPTH lowering effect ([6]; test period): maintained its effect with repeated administration | form present in the plasma ([6]; three times a week for 22 days): present mainly as an unchanged substance | elimination from plasma ([7]; single i.v. 0.01, 0.1, 1.0 and 2.5 mg): rapidly eliminated | safety (side effects) ([7]; single i.v. dose): non-severe and mild side effects such as vomiting were observed in the 1.0 mg and higher dose groups | serum iPTH concentration compared to before the administration ([7]; single i.v. dose): decreased in the 0.01 mg and higher dose groups | excretion into the urine ([7]; with respect to the given dose): excreted into the urine mostly as unchanged substances | concentration at 48 h [8]: 18800 ng/mL | EC50 value estimated in the patients with renal failure [9]: > 0.0014 µg/mL | EC50 [10]: 0.0748 µg/mL | EC50 [11]: 0.000421 ± 0.000167 µg/mL | Vd ([12]; three-compartment model, doses 0.01, 0.1, 1 mg, ± standard error): 0.0909 ± 0.0114 L/kg | C0 ([12]; assumed effective dose 0.1 mg/man, from simultaneous fitting of all doses): 0.0436 µM | survival 48 hours after the administration ([13]; all administered groups (0.3, 3 and 30 mg/kg)): all five rats survived

CC(=O)N[C@H](CSSC[C@H](N)C(=O)O)C(=O)N[C@H](C)C(=O)N[C@H](CCCNC(=N)N)C(=O)N[C@H](CCCNC(=N)N)C(=O)N[C@H](CCCNC(=N)N)C(=O)N[C@H](C)C(=O)N[C@H](CCCNC(=N)N)C(N)=O [comparative compound, etelcalcetide (Ac-c(C) arrrar-NH2) TFA salt]
survival 48 hours after the administration ([13]; 3 mg/kg group): four survived | survival 48 hours after the administration ([13]; 10 mg/kg group): one survived
